In ChEMBL document CHEMBL4417636, “Small molecule inhibitors of pendrin ion exchange and pharmaceutical compositions” (2017):
Activity calls are given as the source filed them. The calls are words filed in the database; no cut-off is given here.

What was measured:
Pendrin (Homo sapiens) [1] = target: T1, Pendrin (Homo sapiens) (UniProt O43511); experiment: Inhibition of human pendrin expressed in FRT cells co-expressing EYFP-HIF assessed as reduction in pendrin-mediated C17SCN(-) exchange incubated for 10 mins by pH-sensitive fluorescent probe BCECF-AM based fluorescence assay relative to control; assay type: cell-based
T1 sequence (whole entry): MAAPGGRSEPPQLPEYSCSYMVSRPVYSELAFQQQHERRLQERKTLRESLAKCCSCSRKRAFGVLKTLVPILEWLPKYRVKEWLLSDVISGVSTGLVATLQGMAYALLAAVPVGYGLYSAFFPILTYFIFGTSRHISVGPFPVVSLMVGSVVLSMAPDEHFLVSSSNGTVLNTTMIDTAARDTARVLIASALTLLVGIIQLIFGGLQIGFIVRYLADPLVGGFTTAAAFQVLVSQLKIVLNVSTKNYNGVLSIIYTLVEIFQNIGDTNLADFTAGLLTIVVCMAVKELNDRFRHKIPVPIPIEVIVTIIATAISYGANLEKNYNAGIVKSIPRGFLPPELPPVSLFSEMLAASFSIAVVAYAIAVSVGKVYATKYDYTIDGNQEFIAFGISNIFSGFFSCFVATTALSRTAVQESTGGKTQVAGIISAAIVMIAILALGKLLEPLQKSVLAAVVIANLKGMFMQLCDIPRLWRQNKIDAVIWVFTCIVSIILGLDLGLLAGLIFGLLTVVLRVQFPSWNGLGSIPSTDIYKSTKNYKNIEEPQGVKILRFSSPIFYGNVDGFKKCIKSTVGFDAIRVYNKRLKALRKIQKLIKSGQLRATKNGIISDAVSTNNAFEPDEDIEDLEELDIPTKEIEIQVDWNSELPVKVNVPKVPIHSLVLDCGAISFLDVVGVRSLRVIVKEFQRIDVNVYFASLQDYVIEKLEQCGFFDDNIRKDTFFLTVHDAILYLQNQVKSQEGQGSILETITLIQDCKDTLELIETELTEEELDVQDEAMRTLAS

Pendrin (Homo sapiens) [2] = target: T1, Pendrin (Homo sapiens); experiment: Inhibition of human pendrin expressed in FRT cells co-expressing EYFP-HIF assessed as reduction in pendrin-mediated C17F exchange incubated for 10 mins by pH-sensitive fluorescent probe BCECF-AM based fluorescence assay relative to control; assay type: cell-based
Pendrin (Homo sapiens) [3] = target: T1, Pendrin (Homo sapiens); experiment: Reversible inhibition of human pendrin expressed in FRT cells co-expressing EYFP-HIF assessed as reduction in pendrin-mediated C17SCN(-) exchange incubated for 10 mins measured after wash out by pH-sensitive fluorescent probe BCECF-AM based fluorescence assay relative to control; assay type: cell-based
Pendrin (Homo sapiens) [4] = target: T1, Pendrin (Homo sapiens); experiment: Time dependent inhibition of human pendrin expressed in FRT cells co-expressing EYFP-HIF assessed as reduction in pendrin-mediated C17SCN(-) exchange by pH-sensitive fluorescent probe BCECF-AM based fluorescence assay relative to control; assay type: cell-based; conditions: TDE = time-dependent effect
Pendrin (Homo sapiens) [5] = target: T1, Pendrin (Homo sapiens); experiment: Inhibition of human pendrin expressed in FRT cells co-expressing EYFP-HIF assessed as reduction in pendrin-mediated C17HCO3(-) exchange by measuring reduction in cytoplasmic alkalinization exchange at 25 uM by pH-sensitive fluorescent probe BCECF-AM based fluorescence assay relative to control; assay type: cell-based
Pendrin (Homo sapiens) [6] = target: T1, Pendrin (Homo sapiens); experiment: Inhibition of pendrin in human bronchial CFBE assessed as increase in airway surface liquid depth at 25 uM by rhodamine B-dextran fluorescence based confocal microscopy (reference value: -16 um)
Mus musculus [7] = experiment: Effect on renal function in CD1 mouse assessed as effect on urine pH at 50 mg/kg, ip; assay type: ADME, organism-based; conditions: in vivo
Mus musculus [8] = experiment: Effect on renal function in CD1 mouse assessed as effect on blood gas values at 50 mg/kg, ip; assay type: ADME, organism-based; conditions: in vivo
Mus musculus [9] = experiment: Effect on renal function in CD1 mouse assessed as effect on urinary salt excretion at 50 mg/kg, ip measured at 3 hrs; assay type: ADME, organism-based; conditions: in vivo
Mus musculus [10] = experiment: Effect on renal function in C57B/6 mouse assessed as effect on urine pH at 50 mg/kg, ip; assay type: ADME, organism-based; conditions: in vivo
Mus musculus [11] = experiment: Effect on renal function in C57B/6 mouse assessed as effect on blood gas values at 50 mg/kg, ip; assay type: ADME, organism-based; conditions: in vivo
Mus musculus [12] = experiment: Effect on renal function in C57B/6 mouse assessed as effect on urinary salt excretion at 50 mg/kg, ip measured at 3 hrs; assay type: ADME, organism-based; conditions: in vivo
Mus musculus [13] = experiment: Potentiation of 20 mg/kg, ip bid for 8 days furosemide-induced chronic diuretic action in CD1 mouse assessed as effect on urine osmolarity at 10 mg/kg, ip measured at 3 hrs relative to control; assay type: functional, organism-based
Mus musculus [14] = experiment: Potentiation of 20 mg/kg, ip bid for 8 days furosemide-induced chronic diuretic action in CD1 mouse assessed as increase in urinary Na+ excretion at 10 mg/kg, ip measured at 3 hrs relative to control; assay type: functional, organism-based
Mus musculus [15] = experiment: Potentiation of 20 mg/kg, ip bid for 8 days furosemide-induced chronic diuretic action in CD1 mouse assessed as increase in urinary K+ excretion at 10 mg/kg, ip measured at 3 hrs relative to control; assay type: functional, organism-based
Pendrin (Mus musculus) = target: T2, Pendrin (Mus musculus) (UniProt Q9R155); experiment: Inhibition of mouse pendrin expressed in FRT cells co-expressing YFP-HIF assessed as reduction in pendrin-mediated kinetics of CI7HCO3(-) exchange by pH-sensitive fluorescent probe BCECF-AM based fluorescence assay relative to control; assay type: cell-based
T2 sequence (whole entry): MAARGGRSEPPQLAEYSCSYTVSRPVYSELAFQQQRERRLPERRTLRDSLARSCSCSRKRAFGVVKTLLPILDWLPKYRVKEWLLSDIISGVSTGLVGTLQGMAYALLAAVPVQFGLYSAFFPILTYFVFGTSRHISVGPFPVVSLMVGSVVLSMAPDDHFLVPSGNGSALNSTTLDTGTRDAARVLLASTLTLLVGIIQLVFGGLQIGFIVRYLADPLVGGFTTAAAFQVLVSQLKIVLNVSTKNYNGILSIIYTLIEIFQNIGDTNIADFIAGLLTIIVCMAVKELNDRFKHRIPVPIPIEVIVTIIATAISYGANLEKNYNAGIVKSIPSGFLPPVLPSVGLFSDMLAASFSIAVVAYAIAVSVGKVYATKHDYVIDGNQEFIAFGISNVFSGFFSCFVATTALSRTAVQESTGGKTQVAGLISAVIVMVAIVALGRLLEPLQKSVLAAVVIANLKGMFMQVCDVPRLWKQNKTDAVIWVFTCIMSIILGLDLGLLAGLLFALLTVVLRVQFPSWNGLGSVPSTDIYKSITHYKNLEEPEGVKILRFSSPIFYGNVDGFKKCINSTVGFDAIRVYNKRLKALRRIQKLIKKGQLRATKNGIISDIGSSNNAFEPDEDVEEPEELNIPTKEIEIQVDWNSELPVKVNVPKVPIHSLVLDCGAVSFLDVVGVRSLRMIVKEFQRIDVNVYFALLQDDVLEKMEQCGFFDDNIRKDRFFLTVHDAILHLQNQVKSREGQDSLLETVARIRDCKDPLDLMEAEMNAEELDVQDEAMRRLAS

Mus musculus [16] = experiment: Potentiation of 20 mg/kg, ip furosemide-induced acute diuretic action in CD1 mouse assessed as effect on urinary K+ excretion at 50 mg/kg, ip measured at 3 hrs relative to control; assay type: functional, organism-based

**Q.** What does the source list for `Cn1nc(COc2cccc(F)c2)c2c1CCN(C(=O)Nc1ccc(Cl)cc1)C2`?
**A.** inhibition (Pendrin (Homo sapiens) [1]): Dose-dependent effect; inhibition (Pendrin (Homo sapiens) [2]): Dose-dependent effect; inhibition (Pendrin (Homo sapiens) [3]): Active; inhibition (Pendrin (Homo sapiens) [4]): Tde; inhibition (Pendrin (Homo sapiens) [5]): Active; Activity (Pendrin (Homo sapiens) [6]): -8 µm; Activity (Mus musculus [7]): Non-Toxic; Activity (Mus musculus [8]): Non-Toxic; Activity (Mus musculus [9]): Non-Toxic; Activity (Mus musculus [10]): Non-Toxic; Activity (Mus musculus [11]): Non-Toxic; Activity (Mus musculus [12]): Non-Toxic; Activity (Mus musculus [13]): inactive; Activity (Mus musculus [14]): Active; Activity (Mus musculus [15]): Active

**Q.** What does the source list for `Cc1n[nH]c(-c2cc(S(=O)(=O)NC3CCCc4ccccc43)c(C)s2)c1C` (stereo unspecified)?
**A.** inhibition (Pendrin (Homo sapiens) [1]): Dose-dependent effect; inhibition (Pendrin (Homo sapiens) [2]): Dose-dependent effect; inhibition (Pendrin (Homo sapiens) [3]): Active; inhibition (Pendrin (Homo sapiens) [4]): Tde; inhibition (Pendrin (Homo sapiens) [5]): Active; inhibition (Pendrin (Mus musculus)): Dose-dependent effect; Activity (Mus musculus [7]): Non-Toxic; Activity (Mus musculus [8]): Non-Toxic; Activity (Mus musculus [9]): Non-Toxic; Activity (Mus musculus [10]): Non-Toxic; Activity (Mus musculus [11]): Non-Toxic; Activity (Mus musculus [12]): Non-Toxic; Activity (Mus musculus [16]): inactive; Activity (Mus musculus [13]): inactive; Activity (Mus musculus [14]): Active; Activity (Mus musculus [15]): Active
